Measured values from PubChem BioAssay (NCI).
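Following 48 hours of exposure in 96-well plates, responses at five concentrations were used to interpolate endpoints linearly. At the GI50, growth is halved. TGI: concentration producing complete growth inhibition.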

Legend:
Assay in all cases: inhibition of tumour cell growth, NCI panel, 48 h
SK-MEL-2 melanoma = test system: SK-MEL-2 melanoma
EKVX NSCLC = test system: EKVX NSCLC
NCI-H522 lung = test system: NCI-H522 lung
RPMI-8226 leukemia = test system: RPMI-8226 leukemia
LOX IMVI melanoma = test system: LOX IMVI melanoma
MDA-MB-435 = test system: MDA-MB-435
NCI-H226 lung = test system: NCI-H226 lung
MALME-3M melanoma = test system: MALME-3M melanoma
HCT-116 colon = test system: HCT-116 colon
SN12C renal = test system: SN12C renal

| SMILES | GI50 (SK-MEL-2 melanoma) | TGI (SK-MEL-2 melanoma) | GI50 (EKVX NSCLC) | TGI (EKVX NSCLC) | TGI (NCI-H522 lung) | GI50 (RPMI-8226 leukemia) | TGI (RPMI-8226 leukemia) | GI50 (LOX IMVI melanoma) | TGI (LOX IMVI melanoma) | TGI (MDA-MB-435) | GI50 (NCI-H226 lung) | TGI (MALME-3M melanoma) | GI50 (HCT-116 colon) | TGI (HCT-116 colon) | GI50 (SN12C renal) | TGI (NCI-H226 lung) | TGI (SN12C renal) |
| --- | --- | --- | --- | --- | --- | --- | --- | --- | --- | --- | --- | --- | --- | --- | --- | --- | --- |
| CCCCCCCCCC[C@@H](O)[C@H]1CC[C@@H]([C@H]2CC[C@H]([C@H](O)CCCCCCCCCC[C@@H]3CC(CC(C)=O)C(=O)O3)O2)O1 (stereo not given in full) | 21.5 µM | 59.9 µM | 19.2 µM | > 100 µM | 37.1 µM | 5.03 µM | 26.2 µM | 0.152 µM | 27.3 µM | > 100 µM | 19.6 µM | 37.5 µM | 0.218 µM | > 100 µM | 26.7 µM |  |  |
| C=C1C[C@]23CC[C@@H]4C(CO)(CO)CC(=O)C[C@]4(C)[C@@H]2C(O)C[C@H]1C3 (stereo not given in full) |  | > 100 µM |  | > 100 µM | > 100 µM |  | > 100 µM |  | > 100 µM | > 100 µM |  | > 100 µM |  | > 100 µM |  | > 100 µM | > 100 µM |
| O=C(n1c(=O)n(-c2ccc([N+](=O)[O-])cc2)c(=O)n1C(=O)C(Cl)(Cl)Cl)C(Cl)(Cl)Cl |  | > 100 µM |  | > 100 µM | > 100 µM |  | > 100 µM |  | > 100 µM | > 100 µM |  | > 100 µM |  | > 100 µM |  | > 100 µM | > 100 µM |
| C=C1C(=O)O[C@H]2[C@@H](O)[C@H](C)CCC/C(C)=C/CC[C@@]3(C)O[C@@H]3C[C@@H]12 |  | 48.9 µM |  | 19 µM | 8.28 µM |  | 25.7 µM |  | 19.3 µM | 29.5 µM |  | 30.6 µM |  | 12.4 µM |  | 3.34 µM | 22.6 µM |
| CCCS(=O)OC1C(C2COC(C)(C)O2)OC2OC(C)(C)OC21 (stereo not given) |  | 37.4 µM |  | 32 µM | 25.9 µM |  | 12.8 µM |  | 21.4 µM | 23.4 µM |  | 18 µM |  | 19.4 µM |  | 46.2 µM | 31.8 µM |
| C1CN(C23OC4(N5CCOCC5)C5C6CC(C7C6C4C72)C53)CCO1 (stereo not given) |  | > 100 µM |  | > 100 µM | > 100 µM |  | > 100 µM |  | > 100 µM | > 100 µM |  | > 100 µM |  | > 100 µM |  | > 100 µM | > 100 µM |
| C[C@@H](CC(O)C(O)C(C)(C)O)C1CCC23CC12CCC1[C@@]2(C)CCC(=O)C(C)(C)C2CC(OC2OC(CO)C(O)C(O)C2O)[C@]13C (stereo not given in full) |  | > 10 µM |  | > 10 µM | > 10 µM |  | > 10 µM |  | > 10 µM | > 10 µM |  | > 10 µM |  | > 10 µM |  | > 10 µM | > 10 µM |
| CN1C(C(=O)Nc2ccccn2)=C(O)c2ccccc2S1(=O)=O |  | > 100 µM |  | > 100 µM | > 100 µM |  | > 100 µM |  | > 100 µM | > 100 µM |  | > 100 µM |  | > 100 µM |  | > 100 µM | > 100 µM |
| Clc1cccc(Cl)c1C1ON=C(c2ccccc2)N1C12CC3CC(CC(C3)C1)C2 (stereo not given) |  | 71 µM |  | > 100 µM | > 100 µM |  | 47.8 µM |  | 63.7 µM | > 100 µM |  | 47 µM |  | 59.9 µM |  | > 100 µM | > 100 µM |
| OCC1=C[C@@](COCc2ccccc2)(OCc2ccccc2)[C@@H](OCc2ccccc2)[C@@H]1OCc1ccccc1 |  | 39.3 µM |  | 51.4 µM | 51 µM |  | 7.33 µM |  | 21.9 µM | 27.4 µM |  | 44.6 µM |  | 47 µM |  | 35.3 µM | 10.3 µM |
| NC(=O)CN1CCN(c2nc(N3CCCC3)c3nc(Cl)c(NCc4ccccc4)nc3n2)CC1 |  | 17.3 µM |  | 30.3 µM | 24.1 µM |  | 19.8 µM |  | 16.5 µM | 20.5 µM |  | 16.3 µM |  | 14.7 µM |  | 39.9 µM | 16.9 µM |
| O=[N+]([O-])c1ccc(-c2nc3ccccc3o2)cc1 |  | > 100 µM |  | > 100 µM | > 100 µM |  | > 100 µM |  | > 100 µM | > 100 µM |  | > 100 µM |  | > 100 µM |  | > 100 µM | > 100 µM |
| COc1ccc(/C=C(\C#N)c2nc(-c3cc4ccccc4oc3=O)cs2)cc1 |  | > 100 µM |  | > 100 µM | 57.5 µM |  | > 100 µM |  | > 100 µM | > 100 µM |  | 91.3 µM |  | > 100 µM |  | > 100 µM | > 100 µM |
| CC(=O)Oc1ccc(-c2c(OC(C)=O)c(OC(C)=O)c(-c3ccc(OC(C)=O)c(OC(C)=O)c3)c(OC(C)=O)c2OC(C)=O)cc1 |  | 29.9 µM |  | 20.2 µM | 18.4 µM |  | 35.4 µM |  | 31.8 µM | 31.7 µM |  | 30.3 µM |  | 40.2 µM |  | 35.5 µM | 35.1 µM |
| NC(Cc1ccccc1)C(=O)O (stereo not given) |  | > 100 µM |  | > 100 µM | > 100 µM |  | > 100 µM |  | > 100 µM | > 100 µM |  | > 100 µM |  | > 100 µM |  | > 100 µM | > 100 µM |
| Cc1ccc2c3ccc4c(c3n(C)c2c1)C(=O)C=CC4=O |  | > 10 µM |  | > 10 µM | 4.75 µM |  | 5.67 µM |  | > 10 µM | > 10 µM |  | 6.01 µM |  | 4.95 µM |  | > 10 µM | > 10 µM |
